Measurements as given in patent US5968910A, “Compositions containing two or three inhibitors of different HIV reverse transcriptases” (priority 1994, dated 1999).
In brackets after ≈: the same amount, converted by molar mass. Read-outs that look alike come from different tables or passages of the source.

Tests used:
HIV-1(IIIB) (WT) = assay: microbe, parasite or virus in culture; type: cell-based; conditions: Human immunodeficiency virus 1, IIIB, CCRF-CEM; CEM cells, Table 1; read-out: 50% Effective Concentration
Summary of the method: (§1)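 Syncytium formation read out after 4 days at 37° C. Cultures: CEM cells, 250,000/ml, infected at 100 50% cell culture infective doses/ml and added to compound dilutions.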

HIV-1/Nev (106-Ala) = assay: Sensitivity of mutant HIV-1 strain in CEM cell cultures; type: cell-based; conditions: Human immunodeficiency virus 1, CCRF-CEM; CEM cells, Table 1; read-out: 50% Effective Concentration
Summary of the method: as §1

HIV-1/Pyr (181-Cys) = assay: as above; type: cell-based; conditions: Human immunodeficiency virus 1, CCRF-CEM; CEM cells, Table 1; read-out: 50% Effective Concentration
Summary of the method: as §1

[1] = system: HIV-1/TIBO R82150 (100-Ile); assay: as above; type: cell-based; conditions: Human immunodeficiency virus 1, CCRF-CEM; CEM cells, Table 1; read-out: 50% Effective Concentration
Summary of the method: as §1

[2] = system: HIV-1/TIBO R82913 (103-Asn); assay: as above; type: cell-based; conditions: Human immunodeficiency virus 1, CCRF-CEM; CEM cells, Table 1; read-out: 50% Effective Concentration
Summary of the method: as §1

[3] = system: HIV-1/TSAO-m^3 T (138-Lys); assay: as above; type: cell-based; conditions: Human immunodeficiency virus 1, CCRF-CEM; CEM cells, Table 1; read-out: 50% Effective Concentration
Summary of the method: as §1

HIV-1 RT (WT) = HIV-1 RT (WT) (Human immunodeficiency virus type 1 group M subtype B, UniProt P03366); assay: biochemical; conditions: substrate [2,8-3H]dGTP 2.95 μM, template poly(rC)oligo(dG); read-out: IC50, anti-HIV-1 RT (WT) activity (converted)
Procedure: The reaction mixture (50 μl) contained 50 mM Tris.HCl, pH 7.8, 5 mM dithiothreitol, […] glutathione, 500 μM EDTA, 150 mM KCl, 5 mM MgCl2, 1.25 μg of bovine serum albumin, a fixed concentration of the labeled substrate [2,8-^3 H]dGTP (2.95 μM, 2 μCi), a fixed concentration of the template/primer poly(C).oligo(dG) (0.1 mM), 0.06% Triton X-100, 5 μl of inhibitor solution [containing various concentrations (5-fold dilutions) of the test compounds], and 5 μl of the RT preparation. The reaction mixtures were incubated at 37° C. for 30 min, at which time 100 μl of calf thymus DNA (150 μg/ml), 2 ml of Na4 P2 07 (0.1 M in 1M HCl), and 2 ml of trichloroacetic acid (10%, v/v) were added. The solutions were kept on ice for 30 min, after which the acid-insoluble material was washed and analyzed for radioactivity.
Compounds I, III, IV and V were evaluated for their inhibitory effect on recombinant HIV-1 RT.

HIV-1(IIIB) = assay: Knock-out concentrations: breakthrough of HIV-1(IIIB)-induced cytopathicity in CEM cell cultures; type: cell-based; conditions: Human immunodeficiency virus 1, IIIB, CCRF-CEM, read-out: HIV-1-induced cytopathicity in cell culture; for activity at 0.1 µg/mL: 0.1 μg/ml; for activity at 0.5 µg/mL: 0.5 μg/ml; for activity at 2.5 µg/mL: 2.5 μg/ml
Procedure: The culture medium consisted of RPMI 1640 containing 10% fetal bovine serum, 2 mM L-glutamine, and 0.075% NaHCO3. The multiplicity of the initial infection was ~1000 times the CCID50 (50% cell culture infective dose). Passages were performed every 3 to 4 days by adding 0.5 to 1.0 ml of the infected culture supernatant to 5 ml of a suspension containing 4×10^5 uninfected CEM cells per ml. Syncytium formation was used as a parameter of virus breakthrough in the cell cultures. In the drug combination experiments, the compounds were combined at the same initial concentrations as used for the two lowest concentrations in the single-drug experiments.
The drug concentrations were kept constant throughout the whole time period of the experiment (10 subcultivations or 35 days). Then the drugs were removed from the cell cultures, and the cells were further subcultured for at least 5 additional passages.

[4] = 936 h, day 39 post infection, compound absent from day 35
[5] = 1008 h, day 42 post infection, compound absent from day 35
[6] = 1104 h, day 46 post infection, compound absent from day 35
[7] = 1176 h, day 49 post infection, compound absent from day 35
[8] = 1272 h, day 53 post infection, compound absent from day 35

**Q.** Which EC50 (HIV-1(IIIB) (WT)) does the source give for `CC(C)Nc1cccnc1N1CCN(C(=O)c2cc3ccccc3[nH]2)CC1` [BHAP U88204, reference compound] here?
**A.** Its EC50 is 0.04 µg/mL (≈ 0.11 µM).

**Q.** What about the EC50 (HIV-1/Nev (106-Ala)) of the same compound?
**A.** Its EC50 is 0.4 µg/mL (≈ 1.1 µM).

**Q.** What about the EC50 (HIV-1/Pyr (181-Cys)) of the same compound?
**A.** Its EC50 is 0.4 µg/mL (≈ 1.1 µM).

**Q.** What about the EC50 [1] of the same compound?
**A.** Its EC50 is 0.75 µg/mL (≈ 2.06 µM).

**Q.** What about the EC50 [2] of the same compound?
**A.** Its EC50 is 1.7 µg/mL (≈ 4.68 µM).

**Q.** What about the EC50 [3] of the same compound?
**A.** Its EC50 is 0.07 µg/mL (≈ 0.193 µM).

**Q.** What about the IC50 (HIV-1 RT (WT)) of the same compound?
**A.** The IC50 was 1.21 µM.

**Q.** And the activity at 0.1 µg/mL (HIV-1(IIIB); 96 h, day 4 post infection)?
**A.** The activity at 0.1 µg/mL was 0%.

**Q.** What about the activity at 0.5 µg/mL (HIV-1(IIIB); 96 h, day 4 post infection) of the same compound?
**A.** Its activity at 0.5 µg/mL is 0%.

**Q.** And the activity at 2.5 µg/mL (HIV-1(IIIB); 96 h, day 4 post infection)?
**A.** The activity at 2.5 µg/mL was 0%.

**Q.** And the activity at 0.1 µg/mL (HIV-1(IIIB); 192 h, day 8 post infection)?
**A.** Its activity at 0.1 µg/mL is 12.5%.

**Q.** And the activity at 0.5 µg/mL (HIV-1(IIIB); 192 h, day 8 post infection)?
**A.** The activity at 0.5 µg/mL was 0%.

**Q.** What about the activity at 2.5 µg/mL (HIV-1(IIIB); 192 h, day 8 post infection) of the same compound?
**A.** The activity at 2.5 µg/mL was 0%.

**Q.** And the activity at 0.1 µg/mL (HIV-1(IIIB); 264 h, day 11 post infection)?
**A.** The activity at 0.1 µg/mL was 50%.

**Q.** And the activity at 0.5 µg/mL (HIV-1(IIIB); 264 h, day 11 post infection)?
**A.** Its activity at 0.5 µg/mL is 6.25%.

**Q.** And the activity at 2.5 µg/mL (HIV-1(IIIB); 264 h, day 11 post infection)?
**A.** The activity at 2.5 µg/mL was 0%.

**Q.** What about the activity at 0.1 µg/mL (HIV-1(IIIB); 336 h, day 14 post infection) of the same compound?
**A.** The activity at 0.1 µg/mL was 100%.

**Q.** What about the activity at 0.5 µg/mL (HIV-1(IIIB); 336 h, day 14 post infection) of the same compound?
**A.** The activity at 0.5 µg/mL was 6.25%.

**Q.** And the activity at 2.5 µg/mL (HIV-1(IIIB); 336 h, day 14 post infection)?
**A.** The activity at 2.5 µg/mL was 0%.

**Q.** What about the activity at 0.1 µg/mL (HIV-1(IIIB); 408 h, day 17 post infection) of the same compound?
**A.** Its activity at 0.1 µg/mL is 100%.

**Q.** And the activity at 0.5 µg/mL (HIV-1(IIIB); 408 h, day 17 post infection)?
**A.** Its activity at 0.5 µg/mL is 25%.

**Q.** And the activity at 2.5 µg/mL (HIV-1(IIIB); 408 h, day 17 post infection)?
**A.** Its activity at 2.5 µg/mL is 0%.

**Q.** What about the activity at 0.1 µg/mL (HIV-1(IIIB); 504 h, day 21 post infection) of the same compound?
**A.** Its activity at 0.1 µg/mL is 100%.

**Q.** And the activity at 0.5 µg/mL (HIV-1(IIIB); 504 h, day 21 post infection)?
**A.** The activity at 0.5 µg/mL was 75%.

**Q.** What about the activity at 2.5 µg/mL (HIV-1(IIIB); 504 h, day 21 post infection) of the same compound?
**A.** The activity at 2.5 µg/mL was 0%.

**Q.** And the activity at 0.1 µg/mL (HIV-1(IIIB); 600 h, day 25 post infection)?
**A.** The activity at 0.1 µg/mL was 100%.

**Q.** And the activity at 0.5 µg/mL (HIV-1(IIIB); 600 h, day 25 post infection)?
**A.** Its activity at 0.5 µg/mL is 87.5%.

**Q.** And the activity at 2.5 µg/mL (HIV-1(IIIB); 600 h, day 25 post infection)?
**A.** The activity at 2.5 µg/mL was 0%.

**Q.** What about the activity at 0.1 µg/mL (HIV-1(IIIB); 672 h, day 28 post infection) of the same compound?
**A.** Its activity at 0.1 µg/mL is 100%.

**Q.** What about the activity at 0.5 µg/mL (HIV-1(IIIB); 672 h, day 28 post infection) of the same compound?
**A.** The activity at 0.5 µg/mL was 100%.

**Q.** What about the activity at 2.5 µg/mL (HIV-1(IIIB); 672 h, day 28 post infection) of the same compound?
**A.** Its activity at 2.5 µg/mL is 0%.

**Q.** And the activity at 0.1 µg/mL (HIV-1(IIIB); 768 h, day 32 post infection)?
**A.** The activity at 0.1 µg/mL was 100%.

**Q.** What about the activity at 0.5 µg/mL (HIV-1(IIIB); 768 h, day 32 post infection) of the same compound?
**A.** Its activity at 0.5 µg/mL is 100%.

**Q.** What about the activity at 2.5 µg/mL (HIV-1(IIIB); 768 h, day 32 post infection) of the same compound?
**A.** Its activity at 2.5 µg/mL is 0%.

**Q.** And the activity at 0.1 µg/mL (HIV-1(IIIB); 840 h, day 35 post infection)?
**A.** Its activity at 0.1 µg/mL is 100%.

**Q.** What about the activity at 0.5 µg/mL (HIV-1(IIIB); 840 h, day 35 post infection) of the same compound?
**A.** Its activity at 0.5 µg/mL is 100%.

**Q.** And the activity at 2.5 µg/mL (HIV-1(IIIB); 840 h, day 35 post infection)?
**A.** The activity at 2.5 µg/mL was 0%.

**Q.** And the activity at 0.1 µg/mL (HIV-1(IIIB); [4])?
**A.** The activity at 0.1 µg/mL was 100%.

**Q.** What about the activity at 0.5 µg/mL (HIV-1(IIIB); [4]) of the same compound?
**A.** Its activity at 0.5 µg/mL is 100%.

**Q.** What about the activity at 2.5 µg/mL (HIV-1(IIIB); [4]) of the same compound?
**A.** Its activity at 2.5 µg/mL is 0%.

**Q.** And the activity at 0.1 µg/mL (HIV-1(IIIB); [5])?
**A.** Its activity at 0.1 µg/mL is 100%.

**Q.** What about the activity at 0.5 µg/mL (HIV-1(IIIB); [5]) of the same compound?
**A.** Its activity at 0.5 µg/mL is 100%.

**Q.** What about the activity at 2.5 µg/mL (HIV-1(IIIB); [5]) of the same compound?
**A.** The activity at 2.5 µg/mL was 0%.

**Q.** What about the activity at 0.1 µg/mL (HIV-1(IIIB); [6]) of the same compound?
**A.** The activity at 0.1 µg/mL was 100%.

**Q.** What about the activity at 0.5 µg/mL (HIV-1(IIIB); [6]) of the same compound?
**A.** Its activity at 0.5 µg/mL is 100%.

**Q.** What about the activity at 2.5 µg/mL (HIV-1(IIIB); [6]) of the same compound?
**A.** The activity at 2.5 µg/mL was 0%.

**Q.** What about the activity at 0.1 µg/mL (HIV-1(IIIB); [7]) of the same compound?
**A.** Its activity at 0.1 µg/mL is 100%.

**Q.** What about the activity at 0.5 µg/mL (HIV-1(IIIB); [7]) of the same compound?
**A.** Its activity at 0.5 µg/mL is 100%.

**Q.** And the activity at 2.5 µg/mL (HIV-1(IIIB); [7])?
**A.** Its activity at 2.5 µg/mL is 0%.

**Q.** And the activity at 0.1 µg/mL (HIV-1(IIIB); [8])?
**A.** The activity at 0.1 µg/mL was 100%.

**Q.** And the activity at 0.5 µg/mL (HIV-1(IIIB); [8])?
**A.** The activity at 0.5 µg/mL was 100%.

**Q.** And the activity at 2.5 µg/mL (HIV-1(IIIB); [8])?
**A.** Its activity at 2.5 µg/mL is 0%.
